Laboratory results: patent US6452009B1, “4-unsubstituted dihydroisoquinolinone derivatives and combinatorial libraries thereof” (Lion Bioscience AG, priority 1999, dated 2002)

Tested on: Streptococcus pyogenes (ATCC #97-03 14289)
Test: Anti-microbial screen (growth inhibition, OD 570 nm)
Format: cell-based
Conditions: ATCC97, 4 h
Experimental: Streptococcus pyogenes (ATCC #97-03 14289) are grown in Todd Hewitt Broth (THB) (Difco Laboratories #0492-17-6) overnight until they reach an optical density of (OD=0.636@570 nm) by reading 0.1 ml in a 96 well microtiter plate in a Molecular Devices Thermomax. This preparation is kept frozen as stocks in 30% v/v glycerol in 1.5 ml aliquots at −70° C. until use. Prior to screening, 1.5 ml aliquots are thawed and diluted into 50 ml THB. 200 μl of this dilution is added to 92 wells of microtiter plate. To three wells THB (200 μl) is added to serve as a blank and a sterility control. Test compounds in DMSO and appropriate concentrations of DMSO are added to Growth/Solvent Controls at 0 time. Plates are read at 0 time at 570 nm in the Molecular Devices plate reader to obtain compounds correction factors for insoluble or colored compounds. Plates are read again at 4 hrs.
Compounds are assayed at a concentration of 170 μg/ml. Percent inhibition for each compound is calculated using the following formulae:
Color correct=(O.D. 0 hr −Blank 0 hr)—(Solvent Control 0 hr−Blank 0 hr)
% Inhibition=100−(O.D. test compound 4 hr−Blank 4 hr−color correct) divided by (O.D. growth/solvent control 4 hr−Blank 4 hr)

Row | Compound | inhibition at 170 µg/mL [%]
1 | C=CCN(CC(N)=O)C(=O)CCN1C(=O)c2cc(NC(=O)CP(=O)(OCC)OCC)ccc2CC1c1cccc(Oc2ccc(Cl)c(Cl)c2)c1 (centres unmarked) | 98.5

Same assay, conditions: ATCC97, compounds assayed at 170 μg/ml, growth in Todd Hewitt Broth read at 570 nm at 4 hrs, read-out: % Inhibition

Row | Compound | inhibition at 170 µg/mL [%]
2 | COc1ccc(Br)c(C(=O)Nc2ccc3c(c2)C(=O)N(Cc2ccc(C(=O)N(CC(N)=O)Cc4cccc(C(F)(F)F)c4)cc2)C(c2ccc(OCCCN(C)C)cc2)C3)c1 (centres unmarked) | 99.4
3 | CN(C)CCCOc1ccc(C2Cc3ccc(NC(=O)CCC4CCCC4)cc3C(=O)N2Cc2ccc(C(=O)N(CC(N)=O)Cc3ccccc3)cc2)cc1 (centres unmarked) | 99.5
4 | CN(C)CCCOc1ccc(C2Cc3ccc(NC(=O)c4ccc(I)cc4)cc3C(=O)N2CCC(=O)N(CCN(C)C)CC(N)=O)cc1 (centres unmarked) | 99.8
5 | CN(C)CCN(CC(N)=O)C(=O)c1ccc(CN2C(=O)c3cc(NC(=O)CCC4CCCC4)ccc3CC2c2ccc(C(F)(F)F)cc2)cc1 (centres unmarked) | 99
6 | CN(C)CCCOc1ccc(C2Cc3ccc(NC(=O)COc4ccc5ccccc5c4)cc3C(=O)N2CCC(=O)N(CC(N)=O)Cc2cccc(C(F)(F)F)c2)cc1 (centres unmarked) | 99.6
7 | CN(C)CCCOc1ccc(C2Cc3ccc(NC(=O)c4cc(C(F)(F)F)cc(C(F)(F)F)c4)cc3C(=O)N2Cc2ccc(C(=O)N(CC(N)=O)C3CC3)cc2)cc1 (centres unmarked) | 99.9
8 | CN(C)CCN(CC(N)=O)C(=O)CCN1C(=O)c2cc(NC(=O)COc3ccc4ccccc4c3)ccc2CC1c1ccc(F)c(F)c1 (centres unmarked) | 99.2
9 | COc1cc(OC)cc(C2Cc3ccc(NC(=O)C4CCC(C)CC4)cc3C(=O)N2CCC(=O)N(CCN(C)C)CC(N)=O)c1 (centres unmarked) | 99.8
10 | COc1cc(OC)cc(C2Cc3ccc(NC(=O)c4ccc(F)c(F)c4)cc3C(=O)N2CCC(=O)N(CCN(C)C)CC(N)=O)c1 (centres unmarked) | 99.5
11 | CCCC(CCC)C(=O)Nc1ccc2c(c1)C(=O)N(Cc1ccc(C(=O)N(CC(N)=O)Cc3ccccc3)cc1)C(c1ccc(OCCCN(C)C)cc1)C2 (centres unmarked) | 99.5
12 | CN(C)CCN(CC(N)=O)C(=O)c1ccc(CN2C(=O)c3cc(NC(=O)CCC4CCCCC4)ccc3CC2c2ccc(C(F)(F)F)cc2)cc1 (centres unmarked) | 99.6
13 | CN(C)CCN(CC(N)=O)C(=O)c1ccc(CN2C(=O)c3cc(NC(=O)CCC4CCCC4)ccc3CC2c2ccc3ccccc3n2)cc1 (centres unmarked) | 98.6
14 | NC(=O)CN(C(=O)CCN1C(=O)c2cc(NC(=O)/C=C/c3ccccc3C(F)(F)F)ccc2CC1c1cccc(Oc2ccc(Cl)c(Cl)c2)c1)C1CC1 (centres unmarked) | 98.5
15 | CN(C)CCCOc1ccc(C2Cc3ccc(NC(=O)C4(c5ccccc5)CC4)cc3C(=O)N2Cc2ccc(C(=O)N(CC(N)=O)Cc3cccc(C(F)(F)F)c3)cc2)cc1 (centres unmarked) | 98.8
16 | Cc1ccc(C2Cc3ccc(NC(=O)c4cc(C(F)(F)F)cc(C(F)(F)F)c4)cc3C(=O)N2CCC(=O)N(CCN(C)C)CC(N)=O)cc1 (centres unmarked) | 99.2
17 | CC(CC(=O)Nc1ccc2c(c1)C(=O)N(CCC(=O)N(CC(N)=O)C1CC1)C(c1ccc(F)c(F)c1)C2)CC(C)(C)C (centres unmarked) | 99.7
18 | CN(C)CCN(CC(N)=O)C(=O)c1ccc(CN2C(=O)c3cc(NC(=O)/C=C/c4ccccc4C(F)(F)F)ccc3CC2c2ccc(C(C)(C)C)cc2)cc1 (centres unmarked) | 98.5
19 | CN(C)CCN(CC(N)=O)C(=O)c1ccc(CN2C(=O)c3cc(NC(=O)CC4CC5CCC4C5)ccc3CC2c2ccc(C(F)(F)F)cc2)cc1 (centres unmarked) | 98.1
20 | CN(C)CCN(CC(N)=O)C(=O)c1ccc(CN2C(=O)c3cc(NC(=O)c4cccc(C(F)(F)F)c4F)ccc3CC2c2ccccc2)cc1 (centres unmarked) | 98.3
21 | CCCC(CCC)C(=O)Nc1ccc2c(c1)C(=O)N(Cc1ccc(C(=O)N(CCN(C)C)CC(N)=O)cc1)C(c1cc(OC)cc(OC)c1)C2 (centres unmarked) | 99.3
22 | NC(=O)CN(Cc1cccc(C(F)(F)F)c1)C(=O)CCN1C(=O)c2cc(NC(=O)CCC3CCCC3)ccc2CC1c1cccc(Oc2ccc(Cl)c(Cl)c2)c1 (centres unmarked) | 98.7
23 | CN(C)CCN(CC(N)=O)C(=O)c1ccc(CN2C(=O)c3cc(NC(=O)CC4CC5CCC4C5)ccc3CC2c2cccc3ccccc23)cc1 (centres unmarked) | 99.5
24 | CN(C)CCCOc1ccc(C2Cc3ccc(NC(=O)c4cccc(C(F)(F)F)c4F)cc3C(=O)N2Cc2ccc(C(=O)N(CC(N)=O)Cc3cccc(C(F)(F)F)c3)cc2)cc1 (centres unmarked) | 99.6
25 | CCCCCC/C=C/C(=O)Nc1ccc2c(c1)C(=O)N(CCC(=O)N(CCN(C)C)CC(N)=O)C(c1ccccc1)C2 (centres unmarked) | 99.8
26 | CCCCCCCC(=O)Nc1ccc2c(c1)C(=O)N(CCC(=O)N(CCC)CC(N)=O)C(c1ccc(OCCCN(C)C)cc1)C2 (centres unmarked) | 98.8
27 | Cc1nnsc1C(=O)Nc1ccc2c(c1)C(=O)N(CCC(=O)N(CCN(C)C)CC(N)=O)C(c1cccc3ccccc13)C2 (centres unmarked) | 99
28 | CN(C)CCN(CC(N)=O)C(=O)CCN1C(=O)c2cc(NC(=O)c3ccccc3F)ccc2CC1c1ccc(C(C)(C)C)cc1 (centres unmarked) | 98.2
29 | CN(C)CCN(CC(N)=O)C(=O)c1ccc(CN2C(=O)c3cc(NC(=O)CCC4CCCC4)ccc3CC2c2ccc(F)c(F)c2)cc1 (centres unmarked) | 99.9

Row | Compound | inhibition at 170 µg/mL [%]
30 | CN(C)CCN(CC(N)=O)C(=O)CCN1C(=O)c2cc(NC(=O)C3(c4ccccc4)CC3)ccc2CC1c1ccccc1 (centres unmarked) | 99.5
31 | COc1cc(OC)cc(C2Cc3ccc(NC(=O)Cc4cccc(C(F)(F)F)c4)cc3C(=O)N2Cc2ccc(C(=O)N(CCN(C)C)CC(N)=O)cc2)c1 (centres unmarked) | 99.2
32 | CCCCCC(=O)Nc1ccc2c(c1)C(=O)N(CCC(=O)N(CC(N)=O)Cc1cccc(C(F)(F)F)c1)C(c1ccc(C(C)(C)C)cc1)C2 (centres unmarked) | 99.4
33 | CN(C)CCCOc1ccc(C2Cc3ccc(NC(=O)Cc4cccc(C(F)(F)F)c4)cc3C(=O)N2CCC(=O)N(CCN(C)C)CC(N)=O)cc1 (centres unmarked) | 99.8
34 | C=CCN(CC(N)=O)C(=O)CCN1C(=O)c2cc(NC(=O)C(=O)c3c(C)cc(C)cc3C)ccc2CC1c1ccc(OCCCN(C)C)cc1 (centres unmarked) | 98.7
35 | Cc1ccc(C2Cc3ccc(NC(=O)c4ccc(F)c(F)c4)cc3C(=O)N2Cc2ccc(C(=O)N(CCN(C)C)CC(N)=O)cc2)cc1 (centres unmarked) | 98.5
36 | COc1cccc(CN(CC(N)=O)C(=O)CCN2C(=O)c3cc(NC(=O)CC4CC5CCC4C5)ccc3CC2c2ccc(OCCCN(C)C)cc2)c1 (centres unmarked) | 98.8
37 | CSc1ccccc1C(=O)Nc1ccc2c(c1)C(=O)N(Cc1ccc(C(=O)N(CCN(C)C)CC(N)=O)cc1)C(c1ccc(C(F)(F)F)cc1)C2 (centres unmarked) | 98.3
38 | CN(C)CCCOc1ccc(C2Cc3ccc(NC(=O)Cc4cccc(C(F)(F)F)c4)cc3C(=O)N2CCC(=O)N(CC(N)=O)C2CC2)cc1 (centres unmarked) | 99.9
39 | CN(C)CCN(CC(N)=O)C(=O)CCN1C(=O)c2cc(NC(=O)c3ccco3)ccc2CC1c1cccc2ccccc12 (centres unmarked) | 98.2
40 | Cc1cc(C)c(C(=O)C(=O)Nc2ccc3c(c2)C(=O)N(Cc2ccc(C(=O)N(CCN(C)C)CC(N)=O)cc2)C(c2ccc4ccccc4n2)C3)c(C)c1 (centres unmarked) | 99.2
41 | CN(C)CCN(CC(N)=O)C(=O)CCN1C(=O)c2cc(NC(=O)CCC3CCCC3)ccc2CC1c1cccc2ccccc12 (centres unmarked) | 99.8
42 | COc1cc(OC)cc(C2Cc3ccc(NC(=O)c4ccc(OC(F)(F)F)cc4)cc3C(=O)N2CCC(=O)N(CCN(C)C)CC(N)=O)c1 (centres unmarked) | 99.5
43 | CN(C)CCN(CC(N)=O)C(=O)CCN1C(=O)c2cc(NC(=O)c3cnccn3)ccc2CC1c1cccc2ccccc12 (centres unmarked) | 99
44 | Cc1cc(C)c(C(=O)C(=O)Nc2ccc3c(c2)C(=O)N(CCC(=O)N(CCN(C)C)CC(N)=O)C(c2ccc(C(F)(F)F)cc2)C3)c(C)c1 (centres unmarked) | 98.9
45 | CN(C)CCN(CC(N)=O)C(=O)CCN1C(=O)c2cc(NC(=O)CC3CCCC3)ccc2CC1c1ccc(C(C)(C)C)cc1 (centres unmarked) | 99.5
46 | CC(CC(=O)Nc1ccc2c(c1)C(=O)N(Cc1ccc(C(=O)N(CC(N)=O)Cc3cccc(C(F)(F)F)c3)cc1)C(c1ccc(F)c(F)c1)C2)CC(C)(C)C (centres unmarked) | 99.3
47 | COc1ccc(Br)c(C(=O)Nc2ccc3c(c2)C(=O)N(Cc2ccc(C(=O)N(CCN(C)C)CC(N)=O)cc2)C(c2ccc(F)c(F)c2)C3)c1 (centres unmarked) | 99.5
48 | Cc1cc(C)c(C(=O)C(=O)Nc2ccc3c(c2)C(=O)N(CCC(=O)N(CCN(C)C)CC(N)=O)C(c2ccc4ccccc4n2)C3)c(C)c1 (centres unmarked) | 99.2
49 | CCCCCC/C=C/C(=O)Nc1ccc2c(c1)C(=O)N(CCC(=O)N(CCN(C)C)CC(N)=O)C(c1ccc(SC)cc1)C2 (centres unmarked) | 99.9
50 | CN(C)CCCOc1ccc(C2Cc3ccc(NC(=O)COc4ccc5ccccc5c4)cc3C(=O)N2Cc2ccc(C(=O)N(CCN(C)C)CC(N)=O)cc2)cc1 (centres unmarked) | 98.6
51 | CN(C)CCCOc1ccc(C2Cc3ccc(NC(=O)c4ccc(I)cc4)cc3C(=O)N2CCC(=O)N(CC(N)=O)Cc2cccc(C(F)(F)F)c2)cc1 (centres unmarked) | 98.8
52 | CN(C)CCCOc1ccc(C2Cc3ccc(NC(=O)CCC4CCCC4)cc3C(=O)N2CCC(=O)N(CCN(C)C)CC(N)=O)cc1 (centres unmarked) | 98.6
53 | Cc1cnc(C(=O)Nc2ccc3c(c2)C(=O)N(CCC(=O)N(CCN(C)C)CC(N)=O)C(c2ccc(C(C)(C)C)cc2)C3)cn1 (centres unmarked) | 98.5
54 | CN(C)CCN(CC(N)=O)C(=O)c1ccc(CN2C(=O)c3cc(NC(=O)c4ccc(I)cc4)ccc3CC2c2cccnc2)cc1 (centres unmarked) | 98.8
55 | Cc1ccc(C2Cc3ccc(NC(=O)c4cccnc4Cl)cc3C(=O)N2Cc2ccc(C(=O)N(CCN(C)C)CC(N)=O)cc2)cc1 (centres unmarked) | 98.8
56 | CN(C)CCCOc1ccc(C2Cc3ccc(NC(=O)CCC4CCCC4)cc3C(=O)N2CCC(=O)N(CC(N)=O)C2CC2)cc1 (centres unmarked) | 98.2
